Results from the NIST ThermoML archive (doi:10.1021/je101316g).
Numbers after ± are expanded uncertainties.

How the values were obtained:
[1] = 101.33 kPa, Liquid; for mass density: Vibrating tube method
[2] = refractive index (Na D-line) (dimensionless); conditions: 101.33 kPa, Liquid, Standard Abbe refractometry

Structure (SMILES): CCCCCCn1cc[n+](CCC#N)c1.O=C([O-])c1cccc(S(=O)(=O)O)c1 [3-(2-cyanoethyl)-1-hexyl-1H-imidazolium 3-sulfobenzoate]
- viscosity ([1]; 293.15 K): 19212 ± 6200 mPa·s
- mass density ([1]; 293.15 K): 1248.1 ± 3.6 kg/m3
- viscosity ([1]; 298.15 K): 11463 ± 3400 mPa·s
- mass density ([1]; 298.15 K): 1244.6 ± 3.6 kg/m3
- viscosity ([1]; 303.15 K): 7578.3 ± 2100 mPa·s
- mass density ([1]; 303.15 K): 1241.2 ± 3.6 kg/m3
- viscosity ([1]; 308.15 K): 4765.8 ± 1200 mPa·s
- mass density ([1]; 308.15 K): 1238 ± 3.6 kg/m3
- viscosity ([1]; 313.15 K): 3001.1 ± 670 mPa·s
- mass density ([1]; 313.15 K): 1234.7 ± 3.6 kg/m3
- viscosity ([1]; 318.15 K): 1953.3 ± 390 mPa·s
- mass density ([1]; 318.15 K): 1231.5 ± 3.5 kg/m3
- viscosity ([1]; 323.15 K): 1189.9 ± 210 mPa·s
- mass density ([1]; 323.15 K): 1228.2 ± 3.5 kg/m3
- viscosity ([1]; 328.15 K): 830.5 ± 130 mPa·s
- mass density ([1]; 328.15 K): 1225 ± 3.5 kg/m3
- viscosity ([1]; 333.15 K): 557.3 ± 74 mPa·s
- mass density ([1]; 333.15 K): 1221.8 ± 3.5 kg/m3
- viscosity ([1]; 338.15 K): 352.1 ± 38 mPa·s
- mass density ([1]; 338.15 K): 1218.6 ± 3.5 kg/m3
- viscosity ([1]; 343.15 K): 225.5 ± 19 mPa·s
- mass density ([1]; 343.15 K): 1215.4 ± 3.4 kg/m3
- viscosity ([1]; 348.15 K): 133.6 ± 7.9 mPa·s
- mass density ([1]; 348.15 K): 1212.1 ± 3.4 kg/m3
- viscosity ([1]; 353.15 K): 92.8 ± 3.8 mPa·s
- mass density ([1]; 353.15 K): 1208.9 ± 3.4 kg/m3
- refractive index ([2]; 298.15 K): 1.52295 ± 0.00074
- refractive index ([2]; 303.15 K): 1.52221 ± 0.00074
- refractive index ([2]; 308.15 K): 1.52146 ± 0.00075
- refractive index ([2]; 313.15 K): 1.52029 ± 0.00076
- refractive index ([2]; 318.15 K): 1.51936 ± 0.00076
- refractive index ([2]; 323.15 K): 1.518 ± 0.00078
- refractive index ([2]; 328.15 K): 1.51666 ± 0.00079
- refractive index ([2]; 333.15 K): 1.51502 ± 0.0008

Structure (SMILES): CCCCCCn1cc[n+](CCC#N)c1.O=S(=O)([O-])c1ccccc1 [3-(2-cyanoethyl)-1-hexyl-1H-imidazolium benzenesulfonate]
- viscosity ([1]; 293.15 K): 7079.4 ± 1900 mPa·s
- mass density ([1]; 293.15 K): 1226 ± 2.5 kg/m3
- viscosity ([1]; 298.15 K): 4268.1 ± 1000 mPa·s
- mass density ([1]; 298.15 K): 1222.7 ± 2.5 kg/m3
- viscosity ([1]; 303.15 K): 2865.6 ± 630 mPa·s
- mass density ([1]; 303.15 K): 1219.4 ± 2.5 kg/m3
- viscosity ([1]; 308.15 K): 1795.1 ± 350 mPa·s
- mass density ([1]; 308.15 K): 1216.1 ± 2.5 kg/m3
- viscosity ([1]; 313.15 K): 1170.4 ± 200 mPa·s
- mass density ([1]; 313.15 K): 1212.8 ± 2.5 kg/m3
- viscosity ([1]; 318.15 K): 781.3 ± 120 mPa·s
- mass density ([1]; 318.15 K): 1209.6 ± 2.5 kg/m3
- viscosity ([1]; 323.15 K): 537.6 ± 70 mPa·s
- mass density ([1]; 323.15 K): 1206.3 ± 2.5 kg/m3
- viscosity ([1]; 328.15 K): 359.9 ± 39 mPa·s
- mass density ([1]; 328.15 K): 1203 ± 2.4 kg/m3
- viscosity ([1]; 333.15 K): 274.2 ± 26 mPa·s
- mass density ([1]; 333.15 K): 1199.7 ± 2.4 kg/m3
- viscosity ([1]; 338.15 K): 181 ± 13 mPa·s
- mass density ([1]; 338.15 K): 1196.5 ± 2.4 kg/m3
- viscosity ([1]; 343.15 K): 133.6 ± 7.6 mPa·s
- mass density ([1]; 343.15 K): 1193.3 ± 2.4 kg/m3
- viscosity ([1]; 348.15 K): 94.6 ± 3.8 mPa·s
- mass density ([1]; 348.15 K): 1190.1 ± 2.4 kg/m3
- viscosity ([1]; 353.15 K): 70 ± 1.9 mPa·s
- mass density ([1]; 353.15 K): 1187.8 ± 2.4 kg/m3
- refractive index ([2]; 298.15 K): 1.527 ± 0.00066
- refractive index ([2]; 303.15 K): 1.5261 ± 0.00067
- refractive index ([2]; 308.15 K): 1.52499 ± 0.00068
- refractive index ([2]; 313.15 K): 1.52382 ± 0.00068
- refractive index ([2]; 318.15 K): 1.52266 ± 0.00068
- refractive index ([2]; 323.15 K): 1.52145 ± 0.00068
- refractive index ([2]; 328.15 K): 1.52025 ± 0.00069
- refractive index ([2]; 333.15 K): 1.51899 ± 0.00069

Structure (SMILES): CCCCCCCCCCCCOS(=O)(=O)[O-].CCCCCCn1cc[n+](CCC#N)c1 [3-(2-cyanoethyl)-1-hexyl-1H-imidazolium dodecyl sulfate]
- mass density ([1]; 293.15 K): 1101.1 ± 2.3 kg/m3
- viscosity ([1]; 298.15 K): 13770 ± 4200 mPa·s
- mass density ([1]; 298.15 K): 1097.8 ± 2.3 kg/m3
- viscosity ([1]; 303.15 K): 8252.7 ± 2300 mPa·s
- mass density ([1]; 303.15 K): 1094.5 ± 2.3 kg/m3
- viscosity ([1]; 308.15 K): 5185.2 ± 1300 mPa·s
- mass density ([1]; 308.15 K): 1091.2 ± 2.3 kg/m3
- viscosity ([1]; 313.15 K): 3354.6 ± 760 mPa·s
- mass density ([1]; 313.15 K): 1088 ± 2.3 kg/m3
- viscosity ([1]; 318.15 K): 2051 ± 410 mPa·s
- mass density ([1]; 318.15 K): 1084.7 ± 2.3 kg/m3
- viscosity ([1]; 323.15 K): 1301.8 ± 230 mPa·s
- mass density ([1]; 323.15 K): 1081.5 ± 2.3 kg/m3
- viscosity ([1]; 328.15 K): 846.3 ± 130 mPa·s
- mass density ([1]; 328.15 K): 1078.3 ± 2.3 kg/m3
- viscosity ([1]; 333.15 K): 566.9 ± 75 mPa·s
- mass density ([1]; 333.15 K): 1075.1 ± 2.2 kg/m3
- viscosity ([1]; 338.15 K): 390.1 ± 44 mPa·s
- mass density ([1]; 338.15 K): 1071.9 ± 2.2 kg/m3
- viscosity ([1]; 343.15 K): 274.9 ± 26 mPa·s
- mass density ([1]; 343.15 K): 1068.8 ± 2.2 kg/m3
- viscosity ([1]; 348.15 K): 189.5 ± 14 mPa·s
- mass density ([1]; 348.15 K): 1065.6 ± 2.2 kg/m3
- viscosity ([1]; 353.15 K): 133.6 ± 7.7 mPa·s
- mass density ([1]; 353.15 K): 1062.6 ± 2.2 kg/m3
- refractive index ([2]; 298.15 K): 1.48409 ± 0.00073
- refractive index ([2]; 303.15 K): 1.48269 ± 0.00073
- refractive index ([2]; 308.15 K): 1.48125 ± 0.00073
- refractive index ([2]; 313.15 K): 1.47991 ± 0.00072
- refractive index ([2]; 318.15 K): 1.47863 ± 0.00073
- refractive index ([2]; 323.15 K): 1.47702 ± 0.00074
- refractive index ([2]; 328.15 K): 1.47566 ± 0.00073
- refractive index ([2]; 333.15 K): 1.47422 ± 0.00073

Structure (SMILES): CCCCC(CC)COC(=O)CC(C(=O)OCC(CC)CCCC)S(=O)(=O)[O-].CCCCCC[n+]1ccn(CCC#N)c1 (stereo not drawn)
- mass density ([1]; 293.15 K): 1092.7 ± 2.6 kg/m3
- viscosity ([1]; 298.15 K): 19896 ± 6400 mPa·s
- mass density ([1]; 298.15 K): 1089 ± 2.6 kg/m3
- viscosity ([1]; 303.15 K): 12117 ± 3600 mPa·s
- mass density ([1]; 303.15 K): 1085.4 ± 2.6 kg/m3
- viscosity ([1]; 308.15 K): 7571.4 ± 2100 mPa·s
- mass density ([1]; 308.15 K): 1081.8 ± 2.5 kg/m3
- viscosity ([1]; 313.15 K): 4586.7 ± 1100 mPa·s
- mass density ([1]; 313.15 K): 1078.3 ± 2.5 kg/m3
- viscosity ([1]; 318.15 K): 2939.5 ± 650 mPa·s
- mass density ([1]; 318.15 K): 1074.8 ± 2.5 kg/m3
- viscosity ([1]; 323.15 K): 1947.7 ± 390 mPa·s
- mass density ([1]; 323.15 K): 1071.3 ± 2.5 kg/m3
- viscosity ([1]; 328.15 K): 1264.7 ± 220 mPa·s
- mass density ([1]; 328.15 K): 1067.9 ± 2.5 kg/m3
- viscosity ([1]; 333.15 K): 848.3 ± 130 mPa·s
- mass density ([1]; 333.15 K): 1064.4 ± 2.5 kg/m3
- viscosity ([1]; 338.15 K): 579.4 ± 78 mPa·s
- mass density ([1]; 338.15 K): 1061 ± 2.4 kg/m3
- viscosity ([1]; 343.15 K): 411.4 ± 48 mPa·s
- mass density ([1]; 343.15 K): 1057.6 ± 2.4 kg/m3
- viscosity ([1]; 348.15 K): 278.6 ± 27 mPa·s
- mass density ([1]; 348.15 K): 1054.2 ± 2.4 kg/m3
- viscosity ([1]; 353.15 K): 191.2 ± 15 mPa·s
- mass density ([1]; 353.15 K): 1050.7 ± 2.4 kg/m3
- refractive index ([2]; 298.15 K): 1.4797 ± 0.00076
- refractive index ([2]; 303.15 K): 1.47841 ± 0.00076
- refractive index ([2]; 308.15 K): 1.47709 ± 0.00076
- refractive index ([2]; 313.15 K): 1.4758 ± 0.00076
- refractive index ([2]; 318.15 K): 1.47447 ± 0.00076
- refractive index ([2]; 323.15 K): 1.47305 ± 0.00076
- refractive index ([2]; 328.15 K): 1.47171 ± 0.00076
- refractive index ([2]; 333.15 K): 1.47029 ± 0.00077

Structure (SMILES): CCCCCCn1cc[n+](CCC#N)c1.O=S(=O)([O-])C(F)(F)F
- viscosity ([1]; 293.15 K): 2243.6 ± 460 mPa·s
- mass density ([1]; 293.15 K): 1289.6 ± 4.6 kg/m3
- viscosity ([1]; 298.15 K): 1469.7 ± 270 mPa·s
- mass density ([1]; 298.15 K): 1285.7 ± 4.6 kg/m3
- viscosity ([1]; 303.15 K): 991.9 ± 160 mPa·s
- mass density ([1]; 303.15 K): 1281.9 ± 4.6 kg/m3
- viscosity ([1]; 308.15 K): 648.5 ± 91 mPa·s
- mass density ([1]; 308.15 K): 1278.3 ± 4.6 kg/m3
- viscosity ([1]; 313.15 K): 437.8 ± 52 mPa·s
- mass density ([1]; 313.15 K): 1274.6 ± 4.5 kg/m3
- viscosity ([1]; 318.15 K): 301.9 ± 30 mPa·s
- mass density ([1]; 318.15 K): 1271 ± 4.5 kg/m3
- viscosity ([1]; 323.15 K): 214 ± 18 mPa·s
- mass density ([1]; 323.15 K): 1267.4 ± 4.5 kg/m3
- viscosity ([1]; 328.15 K): 155.1 ± 10 mPa·s
- mass density ([1]; 328.15 K): 1263.8 ± 4.5 kg/m3
- viscosity ([1]; 333.15 K): 102.7 ± 4.7 mPa·s
- mass density ([1]; 333.15 K): 1260.2 ± 4.4 kg/m3
- viscosity ([1]; 338.15 K): 77.4 ± 2.5 mPa·s
- mass density ([1]; 338.15 K): 1256.6 ± 4.4 kg/m3
- viscosity ([1]; 343.15 K): 54.8 ± 1.3 mPa·s
- mass density ([1]; 343.15 K): 1253.1 ± 4.4 kg/m3
- viscosity ([1]; 348.15 K): 40.1 ± 1 mPa·s
- mass density ([1]; 348.15 K): 1249.2 ± 4.3 kg/m3
- viscosity ([1]; 353.15 K): 29.4 ± 0.8 mPa·s
- mass density ([1]; 353.15 K): 1245.8 ± 4.3 kg/m3
- refractive index ([2]; 298.15 K): 1.52975 ± 0.0008
- refractive index ([2]; 303.15 K): 1.52891 ± 0.00081
- refractive index ([2]; 308.15 K): 1.52774 ± 0.00081
- refractive index ([2]; 313.15 K): 1.52683 ± 0.00081
- refractive index ([2]; 318.15 K): 1.5259 ± 0.00081
- refractive index ([2]; 323.15 K): 1.52464 ± 0.00082
- refractive index ([2]; 328.15 K): 1.52334 ± 0.00082
- refractive index ([2]; 333.15 K): 1.52226 ± 0.00081
